According to patent US20100249123A1, “NOVEL BENZAMIDE DERIVATIVES AS MODULATORS OF THE FOLLICLE STIMULATING HORMONE” (ADDEX PHARMA SA, priority 2007, published 2010):

Assays:
[1] = target: T1, rat follicle stimulating hormone receptor (rFSHR) (Rattus norvegicus, UniProt P20395); assay: Intracellular cAMP measurement (HTRF) assay, antagonism of EC70 of hFSH; assay type: cell-based; conditions: HEK293 cells expressing rFSHR, 1 ng/ml hFSH (EC70), read-out: Class (IC50 to antagonise an EC70 of FSH receptors agonist such as hFSH)
T1 construct: expressed in transfected cells
T1 sequence (P20395 18-692): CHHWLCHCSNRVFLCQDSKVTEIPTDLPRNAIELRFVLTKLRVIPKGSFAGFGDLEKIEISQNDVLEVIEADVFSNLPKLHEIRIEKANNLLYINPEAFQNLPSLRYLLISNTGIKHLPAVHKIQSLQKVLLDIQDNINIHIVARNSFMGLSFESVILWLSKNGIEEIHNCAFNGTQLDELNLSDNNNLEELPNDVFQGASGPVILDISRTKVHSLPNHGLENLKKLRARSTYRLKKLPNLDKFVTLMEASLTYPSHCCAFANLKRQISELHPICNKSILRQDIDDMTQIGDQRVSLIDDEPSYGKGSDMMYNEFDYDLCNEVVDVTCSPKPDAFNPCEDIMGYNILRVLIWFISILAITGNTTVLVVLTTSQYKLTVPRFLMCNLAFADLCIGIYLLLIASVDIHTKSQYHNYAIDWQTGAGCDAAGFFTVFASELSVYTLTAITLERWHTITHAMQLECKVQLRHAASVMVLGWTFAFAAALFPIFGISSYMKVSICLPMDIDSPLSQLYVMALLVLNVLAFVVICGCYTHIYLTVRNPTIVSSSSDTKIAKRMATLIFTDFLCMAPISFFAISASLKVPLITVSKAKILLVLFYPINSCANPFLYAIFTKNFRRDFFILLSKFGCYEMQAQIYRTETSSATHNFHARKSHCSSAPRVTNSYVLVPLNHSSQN
Source text: Intracellular cAMP Measurement Assay
The Intracellular cAMP measurement assay is a functional cell-based assay used to study GPCR function. This method relies on a Time-Resolved Fluorescence (HTRF) assay to measure the cAMP accumulation upon receptor-mediated Gs protein activation in cells expressing recombinant GPCR or in cells from native tissues. In brief, this method is a competitive immunoassay between native cAMP produced by cells and the cAMP labeled with a fluorescent tag. The endogenously produced cAMP competes with exogenous added d2-labelled cAMP for the cAMP binding site on a Eu3+ cryptate labelled anti-cAMP antibody. The d2-labelled cAMP and the Eu^3+ labelled antibody produces a basal fluroresence via HTRF and therefore an intracellular increase in unlabelled cAMP is detected as decrease in this signal. cAMP is one of the most important intracellular mediators. Its concentration in cells can be increased upon binding of many hormones to their receptors. The most studied pathway consists in the release of α-subunit GTP-binding proteins following ligand-receptor interaction, which in turn activates or inhibits the ATP/cAMP conversion function of adenylate cyclase enzyme. cAMP is then involved in many complex regulatory processes such as protein kinase activation or ion channel gating. This method is widely used to study receptor activation of G protein in cells over-expressing GPCRs or in native cells, including FSH receptors expressing cells (Gabriel et al., Assay Drug Dev. Technol., 1, 291-303, 2003).
Transfection and cell culture: The cDNA encoding the rat follicle stimulating hormone receptor (rFSHR), (accession number NM_199237, NCBI Nucleotide database browser) was subcloned into an expression vector containing also the hygromycin resistance gene. Transfection of this vector into HEK293 cells with PolyFect reagent (Qiagen) according to supplier's protocol, and hygromycin treatment allowed selection of antibiotic resistant cells which had integrated stably one or more copies of the plasmid. Positive cellular clones expressing rFSHR were identified in a functional assay measuring cAMP production in cells following stimulation by addition of purified human follicle stimulating hormone (hFSH).
HTRF cAMP assay: On the day of the experiment, cells were detached from the Petri dish and distributed in a low volume, black-walled 384-well plate at a density of 5,000 cells/well in an assay buffer containing 1 mM IBMX to prevent cAMP degradation by cytoplasmic phosphodiesterases. The determination of the cAMP accumulation was performed using an HTRF assay (Trinquet et al., Anal. Biochem., 358, 126-135, 2006). Briefly, cells were incubated for 3 min in the presence of increasing concentrations of negative allosteric modulators (from 1 nM to 60 μM) and then 30 min in the presence of 1 ng/ml of hFSH, an agonist of rat FSH receptor, that has been determined in previous experiments to correspond to the EC70, a concentration that gives 70% of the maximal response of the agonist, and is in accordance with published data (Fox et al., Mol. Endocrin., 15, 378-389, 2001). […] Cells were then lysed by adding the HTRF assay components, the europium cryptate-labeled anti-cAMP antibody, and the XL665-labeled cAMP analog, previously diluted in a HEPES buffer (50 mM, pH 7.0) containing 0.8 M potassium fluoride, 0.2% (w/v) BSA, and 1% (v/v) Triton X-100, a percentage of detergent that ensure complete cell lysis. Assay was then incubated for 1 hr at room temperature, and HTRF signal was measured after excitation at 337 nm, and dual emission at 620 and 665 nm, using a RubyStar fluorimeter (BMG Labtechnologies). Moreover, the fluorescence ratio of an appropriate range of known concentrations of cAMP standards was also included on each assay plate to produce a standard cAMP curve. […]

Row | SMILES | IC50 [1] | melting point
1 | COc1ccc(C(=O)Nc2ccc(C(C)(C)CNC(=O)c3ccc4nccn4c3)cc2)cc1OC [Example 190] | ≥ 1000 nM | 194 to 196 °C
2 | COc1ccc(C(=O)Nc2ccc(C(C)(C)CNC(=O)c3csc4ccccc34)cc2)cc1OC [Example 116] | < 150 nM | 145 to 147 °C
3 | COc1ccc(C(=O)Nc2ccc(C3(C#N)CC3)cc2)cc1OC [Example 2, N-[4-(1-Cyano-cyclopropyl)-phenyl]-3,4-dimethoxy-benzamide] | – | 204 to 207 °C
4 | COc1ccc(C(=O)Nc2ccc(C(C)(C)C#N)c(-c3cncnc3)c2)cc1OC [Example 184, N-[4-(Cyano-dimethyl-methyl)-3-pyrimidin-5-yl-phenyl]-3,4-dimethoxy-benzamide] | ≥ 1000 nM | 198 to 200 °C
5 | COc1ccc(C(=O)Nc2ccc(C(C)(C)CNC(=O)c3n[nH]c4ccccc34)cc2)cc1OC [Example 87] | 150 to 400 nM | 214 to 216 °C
6 | COc1ccc(C(=O)Nc2ccc(C(C)(C)CNC(=O)Cc3c[nH]c4ccccc34)cc2)cc1OC [Example 126] | 150 to 400 nM | 94 to 96 °C
7 | CCOc1ccc(C(=O)Nc2ccc(C(C)(C)C#N)cc2)cc1OCC [Example 160, N-[4-(Cyano-dimethyl-methyl)-phenyl]-3,4-diethoxy-benzamide] | – | 138 to 140 °C
8 | N#CC1(c2ccc(NC(=O)c3ccc4c(c3)OCCO4)cc2)CCCC1 [Example 3, 2,3-Dihydro-benzo[1,4]dioxin-6-carboxylic acid [4-(1-cyano-cyclopentyl)-phenyl]-amide] | – | 164 to 167 °C
9 | COc1ccc(C(=O)Nc2ccc(C3(CNC(=O)c4cscn4)CCCC3)cc2)cc1OC [Example 29, Thiazole-4-carboxylic acid {1-[4-(3,4-dimethoxy-benzoylamino)-phenyl]-cyclopentylmethyl}-amide] | – | 101 to 104 °C
10 | COc1ccc(C(=O)Nc2ccc(C(C)(C)C#N)c(-c3cccc(Cl)c3)c2)cc1OC [Example 157, N-[3′-Chloro-6-(cyano-dimethyl-methyl)-biphenyl-3-yl]-3,4-dimethoxy-benzamide] | – | 144 to 146 °C

Results, then the compound that gave them:

Row | IC50 [1] | melting point | SMILES
11 | ≥ 1000 nM | 234 to 237 °C | COc1ccc(C(=O)Nc2ccc(C(C)(C)CNC(C)=O)c(-c3cccnc3)c2)cc1OC [Example 195, N-[4-(2-Acetylamino-1,1-dimethyl-ethyl)-3-pyridin-3-yl-phenyl]-3,4-dimethoxy-benzamide]
12 | 400 to 1000 nM | 176 to 178 °C | COc1ccc(C(=O)Nc2ccc(C(C)(C)CNC(=O)c3cc4ccccc4n3C)cc2)cc1OC [Example 108]
13 | < 150 nM | 222 to 224 °C | COc1ccc(C(=O)Nc2ccc(C(C)(C)CNC(=O)c3nc4ccc(F)cc4[nH]3)cc2)cc1OC [Example 193, 6-Fluoro-1H-benzoimidazole-2-carboxylic acid {2-[4-(3,4-dimethoxy-benzoylamino)-phenyl]-2-methyl-propyl}-amide]
14 | – | 181 to 183 °C | COc1ccc(C(=O)Nc2ccc(C(C)(C)CNC(=O)c3cnc4ccccn34)cc2)cc1OC [Example 161, Imidazo[1,2-a]pyridine-3-carboxylic acid {2-[4-(3,4-dimethoxy-benzoylamino)-phenyl]-2-methyl-propyl}-amide]
15 | – | 186 to 188 °C | COc1ccc(C(=O)Nc2ccc(C(C)(C)CNC(C)=O)c(F)c2)cc1OC [Example 151, N-[4-(2-Acetylamino-1,1-dimethyl-ethyl)-3-fluoro-phenyl]-3,4-dimethoxy-benzamide]
16 | < 150 nM | 203 to 206 °C | CCc1cc(NC(=O)c2ccc(OC)c(OC)c2)ccc1C(C)(C)CNC(C)=O [Example 200, N-[4-(2-Acetylamino-1,1-dimethyl-ethyl)-3-ethyl-phenyl]-3,4-dimethoxy-benzamide]
17 | 150 to 400 nM | 149 to 151 °C | COc1ccc(C(=O)Nc2ccc(C(C)(C)CNC(=O)CCc3ccccc3)cc2)cc1OC [Example 34]
18 | 150 to 400 nM | 189 to 190 °C | COc1ccc(C(=O)Nc2ccc(C(C)(C)CNC(=O)c3ccsc3)cc2)cc1OC [Example 72]
19 | – | 165 to 167 °C | COc1ccc(C(=O)Nc2ccc(C3(CNC(=O)C(C)(C)C)CCCC3)cc2)cc1OC [Example 23, N-(4-{1-[(2,2-Dimethyl-propionylamino)-methyl]-cyclopentyl}-phenyl)-3,4-dimethoxy-benzamide]
